Laboratory results taken from US20230040021A1 (priority 2019, published 2023).

Key:
[1] = test system: HBsAg antigen-specific IFN-γ; design: species or system C57BL/6(N) mice; settings: mouse, in vivo
[2] = test system: HBcAg antigen-specific IFN-γ; design: species or system C57BL/6(N) mice; settings: mouse, in vivo
[3] = test system: herpes gE antigen-specific IFN-γ; settings: CpG T1 10 + saponin 5 + gE 5 μg/mouse; FIG. 15
Description: Experimental steps: on Day 7 after the immunization of mice, the spleen lymphocytes were prepared according to a conventional method, and the details were as follows: the spleens were taken aseptically by being cut with sterile forceps and scissors, and placed in a 70 μm cell strainer, which was placed in a plate containing 2 ml of pre-chilled 2% FBS (purchased from GIBCO)-PBS; the spleens were ground using a grinding rod, and the spleen cells entered the plate through the meshes to obtain a cell suspension, and then the suspension was filtered by a 40 μm cell strainer (purchased from BD) and put into a 50 ml sterile centrifuge tube by using a Pasteur pipet; it was centrifuged at 500×g at 4° C. for 5 min; the supernatant was discarded, and then 2 ml of 1×erythrocyte disruption agent (purchased from BD) was added to re-suspend the cells, and the resultant was allowed to stand for 5 min at 4° C., protected from light to disrupt the red blood cells; 10 ml of 2% FBS-PBS was added to terminate the erythrocyte disruption reaction; the resultant was centrifuged at 500×g at 4° C. for 5 min, the supernatant was discarded, and then 5 ml of 2% FBS-PBS was added to re-suspend the cells for later use.
C57BL/6(N) mice, female, 5 weeks old, 48 mice, purchased from Shanghai SLRC Laboratory Animal Co. Ltd.
2) QS-21 (CAS: NO. […]

Row | Substance | immune effect: induced production level of HBsAg-specific IFN-γ [1] | immune effect: induced production level of HBcAg-specific IFN-γ [2] | induced production level of gE-specific IFN-γ [3]
1 | TCGTCGTTTTGTCGTTTTGTCGTT (SEQ ID NO: 4) [CpG 7909] | superior to the CpG adjuvants of type A and the CpG adjuvants of type C | superior to the CpG adjuvants of type A and the CpG adjuvants of type C | –
2 | QS-21 [QS21] | – | – | the best effect
3 | TGACTGTGAACGTTCGAGATGA (SEQ ID NO: 3) [CpG 1018] | superior to the CpG adjuvants of type A and the CpG adjuvants of type C | superior to the CpG adjuvants of type A and the CpG adjuvants of type C | –
4 | TCGACGTTCGTCGTTCGTCGTTC (SEQ ID NO: 9) [CpG 684] | superior to the CpG adjuvants of type A and the CpG adjuvants of type C | superior to the CpG adjuvants of type A and the CpG adjuvants of type C | –
5 | TGTCGTCGTCGTTTGTCGTTTGTCGTT (SEQ ID NO: 11) [CPG D2] | lower than those induced by the CpG adjuvants of type A and the CpG adjuvants of type C | lower than those induced by the CpG adjuvants of type A and the CpG adjuvants of type C | –
6 | TCCATGACGTTCCTGACGTT (SEQ ID NO: 5) [CpG 1826] | superior to the CpG adjuvants of type A and the CpG adjuvants of type C | superior to the CpG adjuvants of type A and the CpG adjuvants of type C | –
